Measured values: patent publication US20180272034A1, “USE OF CSA COMPOUNDS TO PREVENT MICROBIAL BUILD-UP OR FOULING OF MEDICAL IMPLANTS” (BRIGHAM YOUNG UNIVERSITY, priority 2017, published 2018)

Experiments:
[1] = system: Staphylococcus aureus MRSA; assay: Log10 reduction, coated PVC endotracheal tube segments and media; assay type: cell-based; settings: CSA-131 polymer coating about 39.4 μg/cm^2 vs uncoated, 24 hours
Method: (§1) Segments of polyvinyl chloride (PVC) endotracheal tubes measuring 3 cm in length were placed in wells of a 6 well plate. 7 ml of inoculum were placed in each well. Testing was repeated in triplicate for each test article. The samples were placed on a rotary shaker (110 revolutions per minute) and incubated at 37±2° C. for 24 hours. At the end of 24 hours the bacteria in the inoculum were characterized via serial dilution, plating, and counting. The endotracheal tube segment was also removed and neutralized. After neutralization, the adherent biofilm biomass was removed and characterized via serial dilution, plating, and counting.
(§2) As the number of viable organisms recovered from the treated catheters is expected to be low, a membrane filtration method provides an appropriate analysis for counting recovered organisms. The remaining recovery solution was filtered through a 0.45 μm filter membrane. Filters were placed on TSA/SDA/NA/TSBA plates and incubated at 37±2° C. and counted after sufficient incubation.
(§3) The log reduction is calculated by determining the Log10 difference between uncoated devices and associated media and coated devices (using a polymer coating including CSA-131 at about 39.4 μg/cm^2) and associated media. The log reduction is calculated as follows:
(§4) Log reduction(Media)=Control Log10(CFU/ml)−Test Log10(CFU/ml)
(§5) Log10(CFU/ml)=Log10(CFU/ml+1)
(§6) Log reduction(Device)=Control Log10(CFU/device)−Test Log10(CFU/device)
(§7) Log10(CFU/device)=Log10(CFU/device+1)

Pseudomonas aeruginosa [2] = assay: as above; assay type: cell-based; settings: CSA-131 polymer coating about 39.4 μg/cm^2 vs uncoated, 24 hours
Method: as §1, §2, §3, §4, §5, §6, §7

Klebsiella pneumonia = assay: as above; assay type: cell-based; settings: CSA-131 polymer coating about 39.4 μg/cm^2 vs uncoated, 24 hours
Method: as §1, §2, §3, §4, §5, §6, §7

Staphylococcus aureus [3] = settings: mixed-species biofilms grown 22 hours, 20 hours of treatment
Method: (§8) Several CSA compounds were tested against Pseudomonas aeruginosa and Staphylococcus aureus mixed-species biofilms grown for an initial 22 hours and subjected to 20 hours of treatment.

Pseudomonas aeruginosa [4] = settings: mixed-species biofilms grown 22 hours, 20 hours of treatment
Method: as §8

[5] = Pre-term lambs intubated with coated endotracheal tubes, tracheal mucosal integrity; assay type: in vivo
Text: Pre-term lambs were intubated using endotracheal tubes (ETTs) including a coating having CSA-131. Tracheal mucosal integrity of the lambs was compared to the tracheal mucosal integrity of a control group (intubated with uncoated ETTs). […] FIG. 2 illustrates the histological appearance of tracheas of the premature lambs that were intubated for three days. […] An area of denuded epithelium (arrowhead), and accumulation of white blood cells (arrow) are highlighted.

[6] = Duration of efficacy of silicone-based Foley catheter with CSA-131; settings: hydrogel coating approximately 10 μm including CSA-131
Text: A silicone-based Foley catheter was coated with a hydrogel coating of approximately 10 μm in thickness. The coating included CSA-131. The coating was initially shown to maintain efficacy for about 6-7 days. A silicone-based Foley catheter was formed using silicone mixed with an NDSA salt form of CSA-131.

[7] = system: All (74) clinical isolates; assay: Broth microdilution MIC, HABP/VABP clinical isolates; assay type: cell-based
Method: (§9) CSA-131 was tested in vitro against a set of clinical isolates representing bacterial species commonly associated with hospital-acquired bacterial pneumonia (HABP) or ventilator-associated bacterial pneumonia (VABP). Antimicrobial susceptibility testing for 74 clinical isolates was performed. Broth microdilution using frozen-form MIC panels consisted of three media types: cation-adjusted Mueller-Hinton broth (CA-HMB), CA-HMB supplemented with 2.5-5% lysed horse blood for S. pneumoniae and Haemophilus test media (HTM) for Haemophilus spp.

Staphylococcus aureus [8] = assay: as above; assay type: cell-based; settings: Staphylococcus aureus (10)
Method: as §9

Enterobacteriaceae = assay: as above; assay type: cell-based; settings: Enterobacteriaceae (22)
Method: as §9

Haemophilus spp. = assay: as above; assay type: cell-based
Method: as §9

Streptococcus Pneumoniae = assay: as above; assay type: cell-based; settings: Streptococcus Pneumoniae (10)
Method: as §9

Compound: CCCCCCCCCCCCNCCC[C@@H](C)[C@H]1CC[C@H]2[C@@H]3[C@H](OCCCN)C[C@@H]4C[C@H](OCCCN)CC[C@]4(C)[C@H]3C[C@H](OCCCN)[C@]12C.Cl.Cl.Cl.Cl [CSA-131]
- Log10 Reduction Device ([1]; 399 (clinical)): 6.24
- Log10 Reduction Media ([1]; 399 (clinical)): 8.89
- Log10 Reduction Total ([1]; 399 (clinical)): 8.23
- Log10 Reduction Device ([1]; 456 (clinical)): 6.77
- Log10 Reduction Media ([1]; 456 (clinical)): 9.63
- Log10 Reduction Total ([1]; 456 (clinical)): 9.63
- Log10 Reduction Device ([1]; U of C #18 (clinical)): 5.92
- Log10 Reduction Media ([1]; U of C #18 (clinical)): 9.36
- Log10 Reduction Total ([1]; U of C #18 (clinical)): 8.44
- Log10 Reduction Device (Pseudomonas aeruginosa [2]; ATCC 10752 (clinical)): 7.32
- Log10 Reduction Media (Pseudomonas aeruginosa [2]; ATCC 10752 (clinical)): 9.86
- Log10 Reduction Total (Pseudomonas aeruginosa [2]; ATCC 10752 (clinical)): 9.58
- Log10 Reduction Device (Pseudomonas aeruginosa [2]; ATCC 27853): 7.58
- Log10 Reduction Media (Pseudomonas aeruginosa [2]; ATCC 27853): 9.15
- Log10 Reduction Total (Pseudomonas aeruginosa [2]; ATCC 27853): 8.62
- Log10 Reduction Device (Pseudomonas aeruginosa [2]; PA14 (clinical)): 5.81
- Log10 Reduction Media (Pseudomonas aeruginosa [2]; PA14 (clinical)): 7.24
- Log10 Reduction Total (Pseudomonas aeruginosa [2]; PA14 (clinical)): 7.00
- Log10 Reduction Device (Klebsiella pneumonia; 06-0140-M4505): 5.21
- Log10 Reduction Media (Klebsiella pneumonia; 06-0140-M4505): 9.49
- Log10 Reduction Total (Klebsiella pneumonia; 06-0140-M4505): 7.85
- Log10 Reduction Device (Klebsiella pneumonia; 4352 (clinical)): 4.91
- Log10 Reduction Media (Klebsiella pneumonia; 4352 (clinical)): 6.56
- Log10 Reduction Total (Klebsiella pneumonia; 4352 (clinical)): 7.70
- Log10 Reduction Device (Klebsiella pneumonia; ATCC 29011): 3.80
- Log10 Reduction Media (Klebsiella pneumonia; ATCC 29011): 6.76
- Log10 Reduction Total (Klebsiella pneumonia; ATCC 29011): 6.82
- MBC S. aureus (Staphylococcus aureus [3]): 1.56 µg/mL
- MIC S. aureus (Staphylococcus aureus [3]): 0.78 µg/mL
- MBC P. aeruginosa (Pseudomonas aeruginosa [4]): 3.125 µg/mL
- MIC P. aeruginosa (Pseudomonas aeruginosa [4]): 3.125 µg/mL
- tracheal mucosal integrity vs control group (uncoated ETTs) ([5]; pre-term lambs intubated with ETTs coated with CSA-131 coating): markedly improved mucosal integrity
- histological appearance of trachea (FIG. 2, image b) ([5]; premature lambs intubated for three days, CSA-131 coated ETT): the epithelium is healthy and intact, and the subjacent connective tissue region is not inflamed
- time coating maintains efficacy [6]: 6 to 7 days
- MIC50 [7]: 4 µg/mL
- MIC90 [7]: 8 µg/mL
- No. of isolates at MIC 2 μg/ml [7]: 23
- No. of isolates at MIC 4 μg/ml [7]: 40
- No. of isolates at MIC 8 μg/ml [7]: 11
- cumulative % inhibited at 2 μg/ml [7]: 31.1%
- cumulative % inhibited at 4 μg/ml [7]: 85.1%
- cumulative % inhibited at 8 μg/ml [7]: 100%
- MIC50 (Staphylococcus aureus [8]): 2 µg/mL
- MIC90 (Staphylococcus aureus [8]): 2 µg/mL
- No. of isolates at MIC 2 μg/ml (Staphylococcus aureus [8]): 10
- No. of isolates at MIC 4 μg/ml (Staphylococcus aureus [8]): 0
- No. of isolates at MIC 8 μg/ml (Staphylococcus aureus [8]): 0
- cumulative % inhibited at 2 μg/ml (Staphylococcus aureus [8]): 100%
- cumulative % inhibited at 4 μg/ml (Staphylococcus aureus [8]): 100%
- cumulative % inhibited at 8 μg/ml (Staphylococcus aureus [8]): 100%
- MIC50 (Enterobacteriaceae): 4 µg/mL
- MIC90 (Enterobacteriaceae): 4 µg/mL
- No. of isolates at MIC 2 μg/ml (Enterobacteriaceae): 4
- No. of isolates at MIC 4 μg/ml (Enterobacteriaceae): 18
- No. of isolates at MIC 8 μg/ml (Enterobacteriaceae): 0
- cumulative % inhibited at 2 μg/ml (Enterobacteriaceae): 18.2%
- cumulative % inhibited at 4 μg/ml (Enterobacteriaceae): 100%
- cumulative % inhibited at 8 μg/ml (Enterobacteriaceae): 100%
- MIC50 (Haemophilus spp.; Haemophilus spp. (10)): 8 µg/mL
- MIC90 (Haemophilus spp.; Haemophilus spp. (10)): 8 µg/mL
- No. of isolates at MIC 4 μg/ml (Haemophilus spp.; Haemophilus spp. (10)): 0 (0%)
- No. of isolates at MIC 8 μg/ml (Haemophilus spp.; Haemophilus spp. (10)): 10
- cumulative % inhibited at 2 μg/ml (Haemophilus spp.; Haemophilus spp. (10)): 0 (0%)
- cumulative % inhibited at 4 μg/ml (Haemophilus spp.; Haemophilus spp. (10)): 0 (0%)
- cumulative % inhibited at 8 μg/ml (Haemophilus spp.; Haemophilus spp. (10)): 100%
- No. of isolates at MIC 2 μg/ml (Haemophilus spp.; Haemophilus spp. (10): 8 H. influenza, 2 H. parainfluenzae): 0 (0%)
- MIC50 (Streptococcus Pneumoniae): 4 µg/mL
- MIC90 (Streptococcus Pneumoniae): 4 µg/mL
- No. of isolates at MIC 2 μg/ml (Streptococcus Pneumoniae): 0 (0%)
- No. of isolates at MIC 4 μg/ml (Streptococcus Pneumoniae): 10
- No. of isolates at MIC 8 μg/ml (Streptococcus Pneumoniae): 0
- cumulative % inhibited at 2 μg/ml (Streptococcus Pneumoniae): 0 (0%)
- cumulative % inhibited at 4 μg/ml (Streptococcus Pneumoniae): 100%
- cumulative % inhibited at 8 μg/ml (Streptococcus Pneumoniae): 100%
